Measurements published in patent US20240083886A1, “HETEROCYCLIC GLP-1 AGONISTS” (Gasherbrum Bio, Inc., priority 2020, published 2024).
pEC50: −log10 of the molar value.

Target: GLP-1 Receptor (Homo sapiens, UniProt P43220)
Assay: GLP-1R agonist cAMP stimulation assay
Format: cell-based
Details: not given
Experimental: Activation of GLP-1 receptor is known to stimulate cyclic AMP (cAMP) production in cells which indicates primary coupling to the Gαs subunit of the G protein heterotrimeric complex.
To optimize functional activity directed toward Gαs coupling, a HEK293/CRE-Luc cell line developed by HDB stably expressing the GLP-1 Receptor was used. 200× concentration of compound working solutions were prepared (Agilent Technologies Bravo) with ½ log serial dilution in 384-well Echo LDV plate (Labcyte, Cat #LP-0200). 50 nL/well 200× concentration of compound working solutions were moved to 384-well white low volume plate (Greiner, Cat #784075) using Labcyte ECHO550. 1×10^5 cells/mL HEK293/GLP1R/CRE-LUC(HD Biosciences) cell suspensions prepared with assay buffer[DPBS containing 0.5 mM IBMX(Sigma, Cat #15879) and 0.1% BSA (GENVIEW, Cat #FA016-100 g)], 10 uL cell suspensions were added to each well of previous generated assay plate which already contains 50 nl compound at 200×concentration using ThermoFisher Multidrop Combi (1000 cells/well). Seal the plate and incubate at 37° C. with 5% CO2 for 30 min.
After incubation the cAMP assay signal was generated using cAMP dynamic 2 Kit (Cisbio). 5 μL cAMP-d2 working solution was added to each well, followed with 5 μL Anti-cAMP antibody-cryptate working solution added to each well using ThermoFisher Multidrop Combi. Incubate at room temperature for 1 hour protected from light. Read the fluorescence at 665 and 615 nm with Reader PerkinElmer EnVision.
% Activity=100%×(mean RLU of test sample−mean RLU of vehicle control)/(mean RLU of MAX control−mean RLU of vehicle control))

Sequence of GLP-1 Receptor (P43220 24-463, species assumed): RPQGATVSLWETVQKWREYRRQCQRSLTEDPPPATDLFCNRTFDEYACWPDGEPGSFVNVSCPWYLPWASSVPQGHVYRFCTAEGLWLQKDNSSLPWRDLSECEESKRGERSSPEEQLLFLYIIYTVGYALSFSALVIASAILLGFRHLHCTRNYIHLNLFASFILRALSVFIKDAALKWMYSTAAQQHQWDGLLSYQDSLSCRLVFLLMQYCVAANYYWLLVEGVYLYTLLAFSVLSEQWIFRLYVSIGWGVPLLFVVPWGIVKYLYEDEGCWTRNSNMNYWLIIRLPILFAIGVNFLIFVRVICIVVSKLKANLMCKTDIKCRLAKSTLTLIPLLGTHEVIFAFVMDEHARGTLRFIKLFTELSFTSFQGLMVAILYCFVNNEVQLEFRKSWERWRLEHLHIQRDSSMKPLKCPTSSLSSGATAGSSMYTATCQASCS

SMILES	pEC50
FC(F)(F)c1nnc(-c2ccc3c(c2)nc(CN2CCC(Oc4cccc(Cc5ccc(Cl)cc5)n4)CC2)n3C[C@@H]2CCO2)[nH]1 [Compound 136a, 2-{[4-({6-[(4-chlorophenyl)methyl]pyridin-2-yl}oxy)piperidin-1-yl]methyl}-1-{[(2S)-oxetan-2-yl]methyl}-5-[5-(trifluoromethyl)-4H-1,2,4-triazol-3-yl]-1H-1,3-benzodiazole]	9.66
FC(F)(F)c1nnc(-c2ccc3c(c2)nc(CN2CCC(Oc4ccnc(Cc5ccc(Cl)cc5)n4)CC2)n3C[C@@H]2CCO2)[nH]1 [Compound 106a, 2-{[4-({2-[(4-chlorophenyl)methyl]pyrimidin-4-yl}oxy)piperidin-1-yl]methyl}-1-{[(2S)-oxetan-2-yl]methyl}-5-[5-(trifluoromethyl)-4H-1,2,4-triazol-3-yl]-1H-1,3-benzodiazole]	10.01
Fc1cc(Cl)ccc1Cc1nccc(OC2CCN(Cc3nc4cc(/C=C/c5cccnc5)ccc4n3C[C@@H]3CCO3)CC2)n1 [Compound 118a, 2-{[4-({2-[(4-chloro-2-fluorophenyl)methyl]pyrimidin-4-yl}oxy)piperidin-1-yl]methyl}-1-{[(2S)-oxetan-2-yl]methyl}-5-[(1E)-2-(pyridin-3-yl)ethenyl]-1H-1,3-benzodiazole]	7.36

The next lines start with the values.

pEC50	SMILES
9.89	Cc1nnc(-c2cc3nc(CN4CCC(Oc5nc(Cc6ccc(Cl)cc6F)ncc5F)CC4)n(C[C@@H]4CCO4)c3cn2)[nH]1 [Compound 170a, 2-[(4-chloro-2-fluorophenyl)methyl]-5-fluoro-4-[(1-{[6-(5-methyl-4H-1,2,4-triazol-3-yl)-3-{[(2S)-oxetan-2-yl]methyl}-3H-imidazo[4,5-c]pyridin-2-yl]methyl}piperidin-4-yl)oxy]pyrimidine]
10.62	N#Cc1nnc(-c2cc3nc(CN4CCC(Oc5nc(Cc6ccc(Cl)cc6F)ncc5F)CC4)n(C[C@@H]4CCO4)c3cn2)[nH]1 [Compound 193a, 5-(2-{[4-({2-[(4-chloro-2-fluorophenyl)methyl]-5-fluoropyrimidin-4-yl}oxy)piperidin-1-yl]methyl}-3-{[(2S)-oxetan-2-yl]methyl}-3H-imidazo[4,5-c]pyridin-6-yl)-4H-1,2,4-triazole-3-carbonitrile]
10.44	FC(F)(F)c1nnc(-c2cc3nc(CN4CCC(Oc5ccnc(Cc6ccc(Cl)cc6)n5)CC4)n(C[C@@H]4CCO4)c3cn2)[nH]1 [Compound 150a, 2-[(4-chlorophenyl)methyl]-4-({1-[(3-{[(2S)-oxetan-2-yl]methyl}-6-[5-(trifluoromethyl)-4H-1,2,4-triazol-3-yl]-3H-imidazo[4,5-c]pyridin-2-yl)methyl]piperidin-4-yl}oxy)pyrimidine]
9.60	Cc1nnc(-c2cc3nc(CN4CCC(Oc5nc(Cc6ccc(Cl)cc6)ncc5F)CC4)n(C[C@@H]4CCO4)c3cn2)[nH]1 [Compound 163a, 2-[(4-chlorophenyl)methyl]-5-fluoro-4-[(1-{[6-(5-methyl-4H-1,2,4-triazol-3-yl)-3-{[(2S)-oxetan-2-yl]methyl}-3H-imidazo[4,5-c]pyridin-2-yl]methyl}piperidin-4-yl)oxy]pyrimidine]

Same assay, conditions: HEK293/GLP1R/CRE-LUC cells, cAMP dynamic 2 Kit (Cisbio), 30 min incubation at 37° C.; read-out: EC50

SMILES	pEC50
Cc1ccc(C(=O)Nc2ccc3c(c2)nc(CN2CCC(Oc4ccnc(Cc5ccc(Cl)cc5F)n4)CC2)n3C[C@@H]2CCO2)cn1 [Compound 113a, N-(2-{[4-({2-[(4-chloro-2-fluorophenyl)methyl]pyrimidin-4-yl}oxy)piperidin-1-yl]methyl}-1-{[(2S)-oxetan-2-yl]methyl}-1H-1,3-benzodiazol-5-yl)-6-methylpyridine-3-carboxamide]	9.74
O=c1[nH]c(-c2cc3nc(CN4CCC(Oc5ccnc(Cc6ccc(Cl)cc6)n5)CC4)n(C[C@@H]4CCO4)c3cn2)no1 [Compound 145a, 3-(2-{[4-({2-[(4-chlorophenyl)methyl]pyrimidin-4-yl}oxy)piperidin-1-yl]methyl}-3-{[(2S)-oxetan-2-yl]methyl}-3H-imidazo[4,5-c]pyridin-6-yl)-4,5-dihydro-1,2,4-oxadiazol-5-one]	10.09
O=c1[nH]c(-c2ccc3c(c2)nc(CN2CCC(Oc4cccc(Cc5ccc(Cl)cc5F)n4)CC2)n3C[C@@H]2CCO2)no1 [Compound 109a]	7.82
O=C(Nc1ccc2c(c1)nc(CN1CCC(Oc3ccnc(Cc4ccc(Cl)cc4F)n3)CC1)n2C[C@@H]1CCO1)c1ccc(-c2ccccc2)nc1 [Compound 119a, N-(2-{[4-({2-[(4-chloro-2-fluorophenyl)methyl]pyrimidin-4-yl}oxy)piperidin-1-yl]methyl}-1-{[(2S)-oxetan-2-yl]methyl}-1H-1,3-benzodiazol-5-yl)-6-phenylpyridine-3-carboxamide]	7.37
O=c1[nH]c(-c2ccc3c(c2)nc(CN2CCC(Oc4ccnc(Cc5ccc(Cl)cc5)n4)CC2)n3C[C@@H]2CCO2)no1 [Compound 108a, 3-(2-{[4-({2-[(4-chlorophenyl)methyl]pyrimidin-4-yl}oxy)piperidin-1-yl]methyl}-1-{[(2S)-oxetan-2-yl]methyl}-1H-1,3-benzodiazol-5-yl)-4,5-dihydro-1,2,4-oxadiazol-5-one]	9.42
O=C(O)c1ccc2c(c1)nc(CN1CCC(Oc3ccnc(Cc4ccc(Cl)cc4F)n3)CC1)n2C[C@@H]1CCO1 [Compound 135a, 2-{[4-({2-[(4-chloro-2-fluorophenyl)methyl]pyrimidin-4-yl}oxy)piperidin-1-yl]methyl}-1-{[(2S)-oxetan-2-yl]methyl}-1H-1,3-benzodiazole-5-carboxylic acid]	9.72
CC(C)c1ccc(C(=O)Nc2ccc3c(c2)nc(CN2CCC(Oc4ccnc(Cc5ccc(Cl)cc5F)n4)CC2)n3C[C@@H]2CCO2)cn1 [Compound 116a, N-(2-{[4-({2-[(4-chloro-2-fluorophenyl)methyl]pyrimidin-4-yl}oxy)piperidin-1-yl]methyl}-1-{[(2S)-oxetan-2-yl]methyl}-1H-1,3-benzodiazol-5-yl)-6-(propan-2-yl)pyridine-3-carboxamide]	7.96
O=C(Nc1ccc2c(c1)nc(CN1CCC(Oc3ccnc(Cc4ccc(Cl)cc4F)n3)CC1)n2C[C@@H]1CCO1)c1cccnc1 [Compound 111a, N-(2-{[4-({2-[(4-chloro-2-fluorophenyl)methyl]pyrimidin-4-yl}oxy)piperidin-1-yl]methyl}-1-{[(2S)-oxetan-2-yl]methyl}-1H-1,3-benzodiazol-5-yl)pyridine-3-carboxamide]	10.05
Fc1cc(Cl)ccc1Cc1cccc(OC2CCN(Cc3nc4cc(-c5nnc(C(F)(F)F)[nH]5)cnc4n3C[C@@H]3CCO3)CC2)n1 [Compound 141a, 2-[(4-chloro-2-fluorophenyl)methyl]-6-({1-[(3-{[(2S)-oxetan-2-yl]methyl}-6-[5-(trifluoromethyl)-4H-1,2,4-triazol-3-yl]-3H-imidazo[4,5-b]pyridin-2-yl)methyl]piperidin-4-yl}oxy)pyridine]	9.89

Now from value to molecule:

pEC50	SMILES
7.91	CC(=O)Nc1ccc2c(c1)nc(CN1CCC(Oc3cccc(Cc4ccc(Cl)cc4F)n3)CC1)n2C[C@@H]1CCO1 [Compound 160a]
8.96	N#CC1(Cn2c(CN3CCC(Oc4ccnc(Cc5ccc(Cl)cc5)n4)CC3)nc3cc(-c4nnc(C(F)(F)F)[nH]4)ccc32)CC1 [Compound 157, 1-[(2-{[4-({2-[(4-chlorophenyl)methyl]pyrimidin-4-yl}oxy)piperidin-1-yl]methyl}-5-[5-(trifluoromethyl)-4H-1,2,4-triazol-3-yl]-1H-1,3-benzodiazol-1-yl)methyl]cyclopropane-1-carbonitrile]
8.85	FC(F)(F)c1nnc(-c2ccc3c(c2)nc(CN2CCC(Oc4ccnc(Cc5ccc(Cl)cc5)n4)CC2)n3C[C@H]2CCOC2)[nH]1 [Compound 148a, 2-{[4-({2-[(4-chlorophenyl)methyl]pyrimidin-4-yl}oxy)piperidin-1-yl]methyl}-1-{[(3R)-oxolan-3-yl]methyl}-5-[5-(trifluoromethyl)-4H-1,2,4-triazol-3-yl]-1H-1,3-benzodiazole]
8.47	Fc1cc(Cl)ccc1COc1cccc(N[C@@H]2CCN(Cc3nc4cc(-c5nnc(C(F)(F)F)[nH]5)ncc4n3C[C@@H]3CCO3)C2)n1 [Compound 174a, 6-[(4-chloro-2-fluorophenyl)methoxy]-N-[(3R)-1-[(3-{[(2S)-oxetan-2-yl]methyl}-6-[5-(trifluoromethyl)-4H-1,2,4-triazol-3-yl]-3H-imidazo[4,5-c]pyridin-2-yl)methyl]pyrrolidin-3-yl]pyridin-2-amine]
9.19	Fc1cc(Cl)ccc1Cc1ncc(F)c(OC2CCN(Cc3nc4cc(-c5nnc(C(F)(F)F)[nH]5)nnc4n3C[C@@H]3CCO3)CC2)n1 [Compound 180a, 2-[(4-chloro-2-fluorophenyl)methyl]-5-fluoro-4-({1-[(7-{[(2S)-oxetan-2-yl]methyl}-3-[5-(trifluoromethyl)-4H-1,2,4-triazol-3-yl]-7H-imidazo[4,5-c]pyridazin-6-yl)methyl]piperidin-4-yl}oxy)pyrimidine]
